Results on two molecules are retold here after US6403650B1, “Treatment of pulmonary hypertension” (Knoll Pharmaceutical Company, priority 1999, dated 2002).

One assay has as its target [3H]Dopamine reuptake. Put plainly: in vitro [3H]dopamine reuptake inhibition in rat brain tissue. In kind it is biochemical. The settings on record: means of ≧3 separate determinations.
The target in assay [1] is [3H]Noradenaline reuptake. Kind of assay: in vitro [3H]noradrenaline reuptake inhibition in rat brain tissue. It counts as biochemical. The settings on record: means of ≧3 separate determinations.

What is called Ki is the dissociation constant of the complex between target and ligand, obtained from inhibition or displacement. Read a low Ki as tighter binding. As to `COc1ccc(C(CN(C)C)C2(O)CCCCC2)cc1` (stereo not shown) [Venlafaxine], the values for the Ki in assay [3H]Dopamine reuptake and in assay [1] were 2590 nM and 196 nM, respectively.

In the case of `CC(NC(C)(C)C)C(=O)c1cccc(Cl)c1` (stereo not shown) [Bupropion], the Ki is 409 nM in assay [3H]Dopamine reuptake and 2590 nM in assay [1].
